PubChem BioAssay AID330 (DTP/NCI, 2004)
Values joined by “and” are separate entries in the source; they are usually repeats but may differ in a detail not shown here. Identical values can stand only once. Toxic doses and inconclusive results are not listed.

Test system: P388 leukemia ip, CD2F1 mice, survival T/C
Assay: NCI In Vivo Anticancer Drug Screen. Data for tumor model P388 Leukemia (intraperitoneal) in CD2F1 (CDF1) mice
Conditions: endpoint: median survival time, higher = longer survival
Procedure, shortened: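 Mice carrying the transplanted tumor received test compound or vehicle. Survival was recorded in each group, and the value is the treated-group measurement divided by that of the vehicle-treated control group.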

[1] = dose: 50.0 mg/kg/injection, schedule: Q01DX005 (ip), vehicle: Klucel (hydroxypropylcellulose) (HPC)
[2] = dose: 100.0 mg/kg/injection, schedule: Q01DX005 (ip), vehicle: Klucel (hydroxypropylcellulose) (HPC)
[3] = dose: 200.0 mg/kg/injection, schedule: Q01DX005 (ip), vehicle: Klucel (hydroxypropylcellulose) (HPC)
[4] = dose: 100.0 mg/kg/injection, schedule: Q04DX003 (ip), vehicle: saline with Tween-80
[5] = dose: 200.0 mg/kg/injection, schedule: Q04DX003 (ip), vehicle: saline with Tween-80
[6] = dose: 400.0 mg/kg/injection, schedule: Q04DX003 (ip), vehicle: saline with Tween-80
[7] = dose: 120.0 mg/kg/injection, schedule: Q01DX005 (ip), vehicle: saline with Tween-80
[8] = dose: 240.0 mg/kg/injection, schedule: Q01DX005 (ip), vehicle: saline with Tween-80
[9] = dose: 12.5 mg/kg/injection, schedule: Q04DX002 (ip), vehicle: saline with Tween-80
[10] = dose: 100.0 mg/kg/injection, schedule: Q04DX003 (ip), vehicle: saline
[11] = dose: 200.0 mg/kg/injection, schedule: Q04DX003 (ip), vehicle: saline
[12] = dose: 400.0 mg/kg/injection, schedule: Q04DX003 (ip), vehicle: saline
[13] = dose: 12.5 mg/kg/injection, schedule: Q01DX009 (ip), vehicle: Klucel (hydroxypropylcellulose) (HPC)
[14] = dose: 25.0 mg/kg/injection, schedule: Q01DX009 (ip), vehicle: Klucel (hydroxypropylcellulose) (HPC)
[15] = dose: 50.0 mg/kg/injection, schedule: Q01DX009 (ip), vehicle: saline with Tween-80
[16] = dose: 100.0 mg/kg/injection, schedule: Q01DX009 (ip), vehicle: saline with Tween-80
[17] = dose: 60.0 mg/kg/injection, schedule: Q01DX005 (ip), vehicle: saline with Tween-80
[18] = dose: 50.0 mg/kg/injection, schedule: Q01DX009 (ip), vehicle: Klucel (hydroxypropylcellulose) (HPC)
[19] = dose: 100.0 mg/kg/injection, schedule: Q01DX009 (ip), vehicle: Klucel (hydroxypropylcellulose) (HPC)
[20] = dose: 200.0 mg/kg/injection, schedule: Q01DX009 (ip), vehicle: Klucel (hydroxypropylcellulose) (HPC)
[21] = dose: 5.0 mg/kg/injection, schedule: Q01DX009 (ip), vehicle: saline with Tween-80
[22] = dose: 10.0 mg/kg/injection, schedule: Q01DX009 (ip), vehicle: saline with Tween-80

CCCCCCC(=O)/C=C/c1ccc(C)cc1
T/C [1]: 100 % of control
T/C [2]: 100 % of control
T/C [3]: 94 % of control

Cc1c2ccncc2c(C)c2c1[nH]c1ccc(F)cc12
T/C (dose: 16.25 mg/kg/injection, schedule: Q04DX002 (ip), vehicle: Klucel (hydroxypropylcellulose) (HPC)): 106 % of control
T/C (dose: 32.5 mg/kg/injection, schedule: Q04DX002 (ip), vehicle: Klucel (hydroxypropylcellulose) (HPC)): 106 % of control

COc1cccc2c1C(=O)c1c(O)c3c(c(O)c1C2=O)CC(O)(C(C)=O)CC3OC1CC(NCC2OC(C(=O)O)C(O)C2O)C(O)C(C)O1 (centres undefined)
T/C (dose: 3.13 mg/kg/injection, schedule: Q04DX003 (ip), vehicle: water): 99 % of control
T/C (dose: 6.25 mg/kg/injection, schedule: Q04DX003 (ip), vehicle: water): 102 % of control
T/C (dose: 12.5 mg/kg/injection, schedule: Q04DX003 (ip), vehicle: water): 109 % of control
T/C (dose: 25.0 mg/kg/injection, schedule: Q04DX003 (ip), vehicle: water): 116 % of control
T/C (dose: 50.0 mg/kg/injection, schedule: Q04DX003 (ip), vehicle: water): 110 % of control

OC(CCl)C(O)C(O)C(O)CCl (centres undefined)
T/C [4]: 109 % of control
T/C [5]: 100 % of control
T/C [6]: 113 % of control

CCOc1c(-c2ccccc2)c(=O)n2c3ccccc3n(CC)c2c1C#N
T/C (dose: 7.5 mg/kg/injection, schedule: Q01DX005 (ip), vehicle: saline with Tween-80): 86 % of control
T/C (dose: 15.0 mg/kg/injection, schedule: Q01DX005 (ip), vehicle: saline with Tween-80): 87 % of control
T/C (dose: 30.0 mg/kg/injection, schedule: Q01DX005 (ip), vehicle: saline with Tween-80): 93 % of control
T/C [7]: 88 % of control
T/C [8]: 98 % of control and 100 % of control

O=S(=O)(O)O.[NH2-].[NH2-].[Pt+2]
T/C (dose: 1.56 mg/kg/injection, schedule: Q04DX002 (ip), vehicle: saline with Tween-80): 112 % of control
T/C (dose: 6.25 mg/kg/injection, schedule: Q04DX002 (ip), vehicle: saline with Tween-80): 162 % of control
T/C [9]: 156 % of control

c1ccc(CCn2cccc/c2=N/C(=NC2CCCCC2)NC2CCCCC2)cc1
T/C (dose: 100.0 mg/kg/injection, schedule: Q01DX001 (ip), vehicle: suspension in saline): 91 % of control
T/C (dose: 200.0 mg/kg/injection, schedule: Q01DX001 (ip), vehicle: suspension in saline): 88 % of control
T/C (dose: 400.0 mg/kg/injection, schedule: Q01DX001 (ip), vehicle: suspension in saline): 92 % of control

CC(C)(C)NC(=O)C(F)(F)C(F)(F)C(F)(F)C(=O)NC(C)(C)C
T/C [10]: 91 % of control
T/C [11]: 100 % of control
T/C [12]: 99 % of control

ClCCn1c(CCl)nc2ccc(Cl)cc21
T/C (dose: 3.12 mg/kg/injection, schedule: Q01DX009 (ip), vehicle: Klucel (hydroxypropylcellulose) (HPC)): 93 % of control
T/C (dose: 6.25 mg/kg/injection, schedule: Q01DX009 (ip), vehicle: Klucel (hydroxypropylcellulose) (HPC)): 101 % of control
T/C [13]: 100 % of control
T/C [14]: 100 % of control

C(=NCCN=Cc1ccc2c(c1)OCO2)c1ccc2c(c1)OCO2
T/C (dose: 25.0 mg/kg/injection, schedule: Q01DX009 (ip), vehicle: saline with Tween-80): 93 % of control
T/C [15]: 92 % of control
T/C [16]: 99 % of control
T/C (dose: 200.0 mg/kg/injection, schedule: Q01DX009 (ip), vehicle: saline with Tween-80): 100 % of control

Cc1cc(NC(=O)Nc2cccc(C3=NCCN3)c2)ccc1NC(=O)Nc1cccc(C2=NCCN2)c1
T/C [4]: 108 % of control
T/C [5]: 108 % of control
T/C [6]: 120 % of control

CCN(CC)c1ccc2cc(-n3nnc4ccccc43)c(=O)oc2c1
T/C [17]: 96 % of control
T/C [7]: 96 % of control
T/C [8]: 99 % of control

O=C1OC(c2ccccc2)=N/C1=C\c1ccc(Br)cc1
T/C [1]: 93 % of control
T/C [2]: 87 % of control and 95 % of control
T/C [3]: 87 % of control

C=C1C(=O)OC2CC1CCC1(C)OC1CCC(C)=CCCC2(C)O (centres undefined)
T/C (dose: 7.5 mg/kg/injection, schedule: Q01DX009 (ip), vehicle: Klucel (hydroxypropylcellulose) (HPC)): 100 % of control and 101 % of control
T/C (dose: 15.0 mg/kg/injection, schedule: Q01DX009 (ip), vehicle: Klucel (hydroxypropylcellulose) (HPC)): 107 % of control and 119 % of control
T/C (dose: 30.0 mg/kg/injection, schedule: Q01DX009 (ip), vehicle: Klucel (hydroxypropylcellulose) (HPC)): 107 % of control and 108 % of control
T/C (dose: 60.0 mg/kg/injection, schedule: Q01DX009 (ip), vehicle: Klucel (hydroxypropylcellulose) (HPC)): 108 % of control

CSCC(NP1(=O)SC(NN=C2CCCCC2)=NC1(C)C)C(=O)O (centres undefined)
T/C [17]: 100 % of control
T/C [7]: 100 % of control
T/C [8]: 100 % of control

CC(=O)Oc1ccc(OC(C)=O)c2c(OC(C)=O)c(C3CCC(C)(C)O3)cc(OC(C)=O)c12 (centres undefined)
T/C [9]: 106 % of control
T/C (dose: 25.0 mg/kg/injection, schedule: Q04DX002 (ip), vehicle: saline with Tween-80): 118 % of control

O=[N+]([O-])c1ccc(-c2csc(-c3ccc(Br)cc3)n2)cc1
T/C [18]: 87 % of control
T/C [19]: 95 % of control
T/C [20]: 92 % of control

O=C(O)CCc1nc(-c2ccccc2-n2cccc2)no1
T/C [15]: 96 % of control
T/C [16]: 102 % of control

NC(=O)c1ccc[n+](Cc2ccccc2)c1
T/C [13]: 110 % of control
T/C [14]: 91 % of control
T/C [18]: 112 % of control
T/C [19]: 93 % of control

O=C(CNNC(=O)c1ccncc1)Nc1ccc(S(=O)(=O)c2ccc(NC(=O)CNNC(=O)c3ccncc3)cc2)cc1
T/C (dose: 25.0 mg/kg/injection, schedule: Q01DX005 (ip), vehicle: Klucel (hydroxypropylcellulose) (HPC)): 89 % of control
T/C [1]: 90 % of control and 91 % of control
T/C [3]: 86 % of control

CC1(C)N=C(N)N=C(N)N1c1cccc(Cl)c1Cl
T/C [21]: 100 % of control
T/C (dose: 5.0 mg/kg/injection, schedule: Q04DX003 (ip), vehicle: saline): 95 % of control
T/C [22]: 108 % of control
T/C (dose: 10.0 mg/kg/injection, schedule: Q04DX003 (ip), vehicle: saline): 95 % of control
T/C (dose: 20.0 mg/kg/injection, schedule: Q01DX009 (ip), vehicle: saline with Tween-80): 121 % of control
T/C (dose: 20.0 mg/kg/injection, schedule: Q04DX003 (ip), vehicle: saline): 116 % of control

Cc1ccc(C)c2c(C#Cc3ccccc3)c3ccccc3c(C#Cc3ccccc3)c12
T/C [1]: 96 % of control
T/C [2]: 90 % of control
T/C [3]: 90 % of control

CCOC(CNN)OCC
T/C (dose: 100.0 mg/kg/injection, schedule: Q01DX009 (ip), vehicle: saline): 106 % of control
T/C (dose: 200.0 mg/kg/injection, schedule: Q01DX009 (ip), vehicle: saline): 91 % of control

CSc1cc(=O)n2c3ccccc3c3ccnc1c32
T/C (dose: 2.5 mg/kg/injection, schedule: Q01DX009 (ip), vehicle: saline with Tween-80): 100 % of control and 120 % of control
T/C [21]: 116 % of control
T/C [22]: 156 % of control

CCCCCCCCCC(=O)C(=O)c1ccc(O)cc1O
T/C [18]: 94 % of control
T/C [19]: 93 % of control
T/C [20]: 94 % of control

FC(F)(F)COP(OCC(F)(F)F)OCC(F)(F)F
T/C [4]: 118 % of control
T/C [5]: 102 % of control
T/C [6]: 104 % of control

COC1CC(OC2CCC3(C)C(=CCC4C3C(OC(C)=O)C(OC(=O)CC(C)C)C3(C)C(C(C)=O)CCC43O)C2)OC(C)C1OC1CC(OC)C(OC2CC(OC)C(OC3OC(C)C(OC4OC(CO)C(O)C(O)C4O)C(OC)C3O)C(C)O2)C(C)O1 (centres undefined)
T/C (dose: 4.13 mg/kg/injection, schedule: Q01DX005 (ip), vehicle: Klucel (hydroxypropylcellulose) (HPC)): 95 % of control
T/C (dose: 8.25 mg/kg/injection, schedule: Q01DX005 (ip), vehicle: Klucel (hydroxypropylcellulose) (HPC)): 101 % of control
T/C (dose: 16.5 mg/kg/injection, schedule: Q01DX005 (ip), vehicle: Klucel (hydroxypropylcellulose) (HPC)): 101 % of control

COC(=O)/C(C#N)=C1\C(=O)OCC1(C)C
T/C [10]: 104 % of control
T/C [11]: 94 % of control
T/C [12]: 98 % of control

COc1ccc2c(c1)sc1nc(Oc3ccccc3)nc(=O)n12
T/C [18]: 105 % of control
T/C [19]: 108 % of control
T/C [20]: 100 % of control
